The values that follow are results of earlier work, collected in publication PMC9569971, “New Oxazolo[5,4-d]pyrimidines as Potential Anticancer Agents: Their Design, Synthesis, and In Vitro Biological Activity Research” (International Journal of Molecular Sciences, 2022).

The term IC50 denotes the point on the concentration scale where inhibition reaches its midpoint.

Like-named read-outs stand apart in the source and are kept apart here.

In one data set the test system is A549. The settings on record: cited from earlier work.
For the next data set, the system named is HT29. The settings on record: ref 70; cited from earlier work.

`COc1cc2nccc(Oc3ccc(NC(=O)NC4CC4)c(Cl)c3)c2cc1C(N)=O` [Lenvatinib]: the IC50 entry was “almost no effect” in the data set with A549 (listed as lenvatinib), “No effect ^f” in the data set with A549 (ref 69) and 431 µM in the data set on HT29.
